# Assay results from US20100331409A1, “Use of Methyl Cinnamate in the Inhibition of Candida Albicans Biofilms” (Barak Biotechnology Co., Ltd., priority 2009, published 2010).
# Key:
# Type in all cases: cell-based
# [1] = system: biofilm of Candida albicans; assay: Inhibition of biofilm of Candida albicans on polystyrene (XTT and crystal violet); settings: concentration ranging from 0.015% to 0.125%; added 4 hours after adhesion, cultured at 37° C. to 48 hours; XTT and CV
# Description: A single colony of Candida albicans was selected from YPD plate (1% (w/v) yeast extract, 2% (w/v) peptone, 2% (w/v) dextrose and 1.5% (w/v) agar), seeded in YPD liquid medium (1% (w/v) yeast extract, 2% (w/v) peptone and 2% (w/v) dextrose) and then cultured at 30° C. and 100 rpm for 16 hours. The YPD medium was washed out and the amounts of the Candida albicans cells were counted using Hematocyte Counter. The cells were diluted with RPMI 1640 medium (Gibco, Invitroge, Calif., U.S.A.) to 5×10^5 cells/ml. 200 μL of 5×10^5 cells/ml medium were added to 96-well plate and placed at 37° C. for 1 hour so that the cells could adhere to the bottom of the plate. The non-adhered cells were washed out with phosphate buffer. The material of the 96-well plate was polystyrene, which is a common material for medical device such as syringe. Subsequently, RPMI 1640 medium was added to the plate and cultured at 37° C. […] The numbers of cells in the biofilm were determined by a colorimetric assay using XTT [2,3-Bis(2-methoxy-4-nitro-5-sulfo-phenyl)-2H-tetrazolium-5-carboxanilide] (Sigma, Mo., U.S.A.) and their biomass was determined by crystal violet to find out the mature development of biofilm (Ramage G et al., Inhibition of Candida albicans Biofilm Formation by Farnesol, A Quorum-Sensing Molecule. Appl Environ Microbiol 2002, 68: 5459-5463). […]
# Candida albicans [2] = assay: MFC assay against Candida albicans; settings: 1×10^5 CFU/ml, 96-well plates, 37° C. for 16 hours
# Description: (§1) A single colony of Candida albicans was selected from YPD plate, seeded in YPD liquid medium and then cultured at 30° C. and 100 rpm for 16 hours. The medium was diluted to 1×10^5 CFU/ml. The diluted medium was added to 96-well plates containing different concentrations of methyl cinnamate and essential oil of Zanthoxylum armatum (0.00625% to 1% for methyl cinnamate and 0.025% to 0.5% for essential oil) and cultured at 37° C. for 16 hours.
# Candida albicans [3] = assay: MIC assay against Candida albicans; settings: 1×10^5 CFU/ml, 96-well plates, 37° C. for 16 hours
# Description: as §1
structure (smiles),measurement,setting,value
COC(=O)/C=C/c1ccccc1 [methyl cinnamate],biofilm inhibited,[1],10 to 60%
same,MFC,Candida albicans [2],0.8%
same,MIC,Candida albicans [3],0.1%
